# Laboratory results: patent publication US20100120902A1, “STANDARIZED BIOACTIVE HERBAL EXTRACTS” (RANBAXY LABORATORIES LIMITED, priority 2007, published 2010)
# Key:
# [1] = test system: IL-2 production in human PBMCs; conditions: phytohemagglutinin stimulated; Pandey et al 2005; cited from earlier work
# [2] = test system: TNF-α production in human PBMCs; conditions: lipo-polysaccharide induced; Pandey et al 2005; cited from earlier work
# [3] = test system: nuclear factor-(kappa)B and transcription factor AP-1; conditions: Pandey et al 2005; cited from earlier work
# [4] = test system: PBM cells (peripheral blood mononuclear cells); experiment: In-vitro mitogen induced lymphocyte proliferation assay (3H-thymidine uptake); assay type: cell-based; conditions: Homo sapiens, PBMC; 20 μg/ml
# Experimental: Blood (20 ml) was collected from healthy volunteers in a […] 10 ml of lymphoprep (Nycomed pharma, AS) and centrifuged at 1800 rpm for 30 minutes at 23° C., mononuclear cell containing buffy layer was transferred to another tube and washed three times with PBS (phosphate buffered saline) and centrifuged at 1500 rpm for 15 minutes. […] PBM cells were adjusted to a concentration of 1×10^6 cells/ml in RPMI buffer (Biochrom AG) and 2×10^5 cells/well were seeded in a total volume of 200 μl to a 96 well U bottom plate. […] Cultures were incorporated with 0.5 μCi[3H], 18 hours before the completion of incubation and cells were harvested on glass fiber filter using multi-well harvester and thymidine uptake was determined by measuring radioactivity on liquid scintillation counter and the mean count per minute (CPM) of triplicate was calculated.
# [5] = test system: TNF-α, IL-1β and iNOS mRNA expression in RAW 264.7 cells; experiment: In-vitro effect on gene expression of inflammatory mediators (semi-quantitative RT-PCR); assay type: cell-based, mouse; conditions: 12 hrs incubation
# [6] = test system: LTB4 release from neutrophils; experiment: In-vitro leukotriene B4 (LTB4) release assay (A23187, ELISA); assay type: cell-based; conditions: Homo sapiens, Neutrophil; A23187 stimulated
# Experimental: Neutrophils were isolated from freshly drawn human blood after dextran sedimentation and ficoll separation [Hatzelmann and Ullrich, Eur. J. […] Ca^++/Mg^++ (0.25 mM) was added, 3 minutes before the end of incubation with these test samples. Then, 0.3 μg/ml of A23187 (Calcimycin) was added and incubated for further 10 minutes. The reaction was stopped by adding 80 μl of cold methanol and mixture was spun at 3500 rpm for 10 minutes to remove cell debris. The samples were analyzed for LTB4 assay [Hatzelmann and Schudt, J. Pharmacol. Exp. […] (2001), 267-279] using LTB4 ELISA kits (Assay Design Inc., USA). The amount of LTB4 was quantified and percent inhibition in LTB4 release was calculated with respect to control (without test sample) to compute IC50 values.
# [7] = test system: TNF-α release from PBM cells; experiment: In-vitro TNF-α release inhibition assay from PBMCs (LPS, ELISA); assay type: cell-based; conditions: Homo sapiens, PBMC; LPS stimulated PBM cells
# Experimental: (§1) Blood (20 ml) was collected from healthy volunteers in a heparanised vial with 10 ml of lymphoprep (Nycomed pharma, AS) and centrifuged at 1800 rpm for 30 minutes at 23° C., mononuclear cell containing buffy layer was transferred to another tube and washed three times with PBS (phosphate buffered saline) and centrifuged at 1500 rpm for 15 minutes. Pellet cells were resuspended in 2 ml of RPMI-1640 medium (Biochrom, AG) supplemented with 25 mM HEPES [N-(2-hydroxyethyl)piperazine-N′-(2-ethanesulfonic acid)], L-glutamine (2 mM), penicillin (100 U/ ml), streptomycin (100 μg/ml) and 10% inactivated FCS (fetal calf serum) and, finally viable cells were counted.
# (§2) PBM cells were adjusted to 1×10^6 cells/ml number in RPMI 1640 medium, (Biochrom AG) and 100 μl volume of this cell suspension per well was plated in a 96 well plate. […] Twenty μl of DMSO control and each concentration of these prepared test samples were added to corresponding wells in a 96 well plate. The plate was incubated for 30 minutes at room temperature on rotatory shaker at 200 rpm and 50 μl of lipopolysacchride (LPS) (4 μg/ml) was added to each well, except negative LPS control wells. […] A dose response curve was generated with different concentrations of test sample and the IC50 was calculated using Graph Pad Prism. […]
# [8] = test system: IL-1β release from PBM cells; experiment: In-vitro IL-1β release inhibition assay from PBMCs (LPS, ELISA); assay type: cell-based; conditions: Homo sapiens, PBMC; LPS stimulated PBM cells; read-out: IC50 against IL-1β release
# Experimental: as §1, §2
# supernatant cells = experiment: Cell viability/toxicity test (MTT assay); assay type: cell-based
# Experimental: Viability of cells was analyzed using (3-4,5-dimethylthiazol-2-yl)-2,5-diphenyl-tetrazolium bromide (MTT) assay (Mosmann T, J Immunol. Meth., 65 (1983), 55-63) with supernatant cells by adding 0.1 mL of MTT (0.25 mg/mL) with 0.1 mL of supernatant cells. The cells were incubated at 37° C. for about 2-4 hours, and then the optical density was measured at 490-650 nm.
# [9] = test system: carrageenan induced hyperalgesia; experiment: Analgesic efficacy against carrageenan induced hyperalgesia; assay type: in vivo, wistar rats; conditions: 5 mg/kg oral, after 2 hours
# CFA induced hyperalgesia = experiment: Antihyperalgesic activity against Complete Freund's adjuvant (CFA) induced hyperalgesia; assay type: in vivo, rats; conditions: 5 mg/kg oral, 2 hours post treatment
# Experimental: Basal weight bearing threshold of the rats was determined using Randall Selitto analgesiometer (Ugo Basile, Italy) followed by challenge with Complete Freund's adjuvant (a suspension of desiccated Mycobacterium butyricum in a mixture of paraffin oil and an emulsifying agent, mannide monooleate; 50 μL of 500 μg/ml suspension/animal), injected subplantarly. Twenty four hours later weight-bearing threshold of the animals was recorded as pre-dose values at time 0 hours. […] Two hours post treatment, weight-bearing threshold of the animals was recorded again. […] One group was treated with Incomplete Freund's adjuvant (IFA) and served as negative control group.
# [10] = test system: carrageenan induced paw edema; experiment: Anti-inflammatory efficacy against carrageenan induced paw edema model; assay type: in vivo, rats; conditions: 5 mg/kg oral, 3 hours post carrageenan
# Experimental: One hour later, animals were challenged with carrageenan (1% w/v, 100 μL/rat) subplantarly. The paw edema was recorded 3 hours post carrageenan challenge. Data from each group was expressed as mean±SEM. Change in paw edema in treatment group were compared from vehicle control group using one-way ANOVA followed by Dunnett's multiple comparison test. A p≦0.05 was considered statistically significant.
# [11] = test system: CFA induced arthritis (contra-lateral paw volume); experiment: Antiarthritic efficacy against CFA induced arthritis model; assay type: in vivo, Wistar rats; conditions: 0.2 mg/kg/day
# Experimental: Wistar rats were injected with 50 μL of 1 mg/ml solution of Complete Freund's adjuvant (CFA) subplantarly. […] The animals showing 0.30-0.40 ml increase in paw volume of the contralateral paw from the basal were included in the study.
# The test sample or vehicle (polyethylene glycol+water 20:80) was administered in two divided doses for 10 days. The paw volume of the animals was recorded on the alternate days. A plot of change in paw volume from day 0 was made and area under the curve (AUC) was calculated using GraphPad Prism software (GraphPad Software Inc, USA, Version 4) for each animal and was averaged in each treatment group.
# [12] = test system: CFA induced arthritis in ankle joint; experiment: Histopathological analysis of CFA induced arthritis in ankle joint; assay type: in vivo, Wistar rats
# Experimental: At the end of the study (p), animals were euthanized and ankle joints of contra-lateral hind limb were collected for histopathological evaluation Ankle joints were evaluated for the effect on synovial proliferation, inflammation of soft tissues, pannus formation and erosion of cartilage as well as bone (FIG. 13). The changes observed were scored as 0=no change, 1 mild, 2=moderate, 3=marked and 4=severe. The scores for each parameter mentioned above were summed to obtain total histopathological score for each animal.
# [13] = test system: formalin induced Phase I and Phase II pain; experiment: Analgesic efficacy against formalin test; assay type: in vivo, mice; conditions: 10 mg/kg i.p.
# Experimental: Thirty minutes later, formalin solution (1% w/v, 25 μL/mice) was injected subplantarly in mice and immediately after injection, duration of mice licking or flicking of the injected paw was recorded for a period of 30 minutes in 5 minute slots. The first five minutes duration constitutes Phase-I pain which is centrally mediated while Phase-II pain which lasts from 10-30 minutes is peripherally mediated pain. Values of each group were expressed as mean±SEM (standard error of mean) and comparison was made with control group using one-way ANOVA followed by Dunnett's multiple test and a p≦0.05 was considered statistically significant.
# [14] = test system: LPS induced TNF-α release (plasma); experiment: Anti-inflammatory efficacy against endotoxemia; assay type: in vivo, female Balb/C mice; conditions: 10 mg/kg oral
# Text: One hour later, animals were challenged with LPS (lipopolysacchride). Ninety minutes later, blood was collected and TNF-α was estimated in the plasma using ELISA kit and values for each treatment group was expressed as mean±SEM. Comparison was made with control group using one-way ANOVA followed by Dunnett's multiple test and a p≦0.05 was considered statistically significant.
structure (smiles),measurement,setting,value
"COc1cc2oc(-c3ccc(O)cc3)c(OC3OC(CO)C(O)C(O)C3O)c(=O)c2c(O)c1OC [Bd-I, eupalitin-3-O-beta-D-galactopyranoside]",production of IL-2 at the protein and mRNA transcript levels,[1],inhibited
same,TNF-α production,[2],inhibited
same,activation of DNA binding of nuclear factor-(kappa)B and AP-1,[3],block the activation of DNA binding
Cc1c(O)cc2oc3c(c(=O)c2c1O)-c1ccccc1OC3O (centres unmarked) [Boeravinone B],inhibition at 20 µg/mL,[4],66%
same,"expression of TNF-α, IL-1β and iNOS",[5],down regulated all the 3 inflammatory mediators
same,IC50,[6],> 100 µg/mL
same,IC50,[7],6.8 µg/mL
same,IC50,[8],3.6 µg/mL
same,concentration at 50% viability of tested cells,supernatant cells,64.5 µg/mL
Cc1c(O)cc2oc3c(c(=O)c2c1O)-c1ccc(O)cc1OC3O (centres unmarked) [Boeravinone E],inhibition at 20 µg/mL,[4],59%
same,"expression of TNF-α, IL-1β and iNOS",[5],down regulated all the 3 inflammatory mediators
same,IC50,[6],21.8 µg/mL
same,IC50,[7],7 µg/mL
same,IC50,[8],7 µg/mL
same,concentration at 50% viability of tested cells,supernatant cells,81.5 µg/mL
COc1ccc2c(c1)c(CC(=O)O)c(C)n2C(=O)c1ccc(Cl)cc1 [Indomethacin],inhibition (carrageenan induced hyperalgesia),[9],66%
same,reversal of the hyperalgesia induced by CFA,CFA induced hyperalgesia,64%
same,inhibition of carrageenan induced paw edema,[10],48%
same,paw edema,[11],reversal of the paw edema toward basal level
same,% inhibition (histopathological score),[12]; 0.2 mg/kg,62.8%
same,recruitment of inflammatory cells,"[12]; 0.2 mg/kg/day, FIG. 13 A",completely prevented the recruitment of inflammatory cells
same,Pannus formation,"[12]; 0.2 mg/kg/day, FIG. 13 B",mild
same,inhibitory effect on cartilage degradation,"[12]; 0.2 mg/kg/day, FIG. 13 C",prominent
CC(C)=CCN1CCC2(C)c3cc(O)ccc3CC1C2C (centres unmarked) [Pentazocin],percent protection in Phase-I pain,[13],40%
same,percent protection in Phase-II pain,[13],50%
O=c1ncn2nc(Sc3ccc(F)cc3F)ccc2c1-c1c(Cl)cccc1Cl [Vx745],inhibition of LPS response (TNF-α),[14],59%
